Assay results: ChEMBL document CHEMBL1134842, “Mononuclear platinum(II) complex with 2-phenylpyridine ligands showing high cytotoxicity against mouse sarcoma 180 cells acquiring high cisplatin resistance” (J Med Chem, 2001)

How the values were obtained:
[1] = Cytotoxicity against S-180cisR cells by MTT assay.; type: functional, cell-based, Mus musculus
[2] = Cytotoxicity against S-180 cells by MTT assay.; type: functional, cell-based, Mus musculus

Row | Substance | IC50 [1] [µM] | IC50 [2] [nM]
1 | cis-[PtCl2(NH3)(3-CH3CH2C5H4N)] | 49 | 
2 | cis-[PtCl(2-C6H4C5H4)(2-C6H5C5H4N)] | 8.6 | 3100
3 | cis-[PtCl2(NH3)(3-CH3C5H4N)] | 49 | 
4 | cis-[PtCl2(NH3)(2-C6H5CH2C5H4N)] | 49 | 
5 | cis-[PtCl2(NH3)(2-CH3C5H4N)] | 49 | 
6 | CISPLATIN | 59 | 2400
